Experimental data from ChEMBL document CHEMBL3608236, “Understanding the chemistry behind the antioxidant activities of butylated hydroxytoluene (BHT): a review” (Eur J Med Chem, 2015).
≈ marks a conversion by molar mass, not a printed value.

Assay: Antioxidant activity assessed as hydrogen peroxide scavenging activity
Type: physicochemical

SMILES	IC50
Oc1ccc(-c2nnc(S)n2/N=C/c2cccc(O)c2)cc1	20 µg/mL (≈ 64 µM)
O=[N+]([O-])c1ccccc1/C=N/n1c(S)nnc1-c1ccc(O)cc1	32 µg/mL (≈ 93.7 µM)
Oc1ccc(-c2nnc(S)n2/N=C/c2ccccc2)cc1	24 µg/mL (≈ 81 µM)
Oc1ccc(-c2nnc(S)n2/N=C/c2ccccc2Cl)cc1	60 µg/mL (≈ 181 µM)
O=[N+]([O-])c1cccc(/C=N/n2c(S)nnc2-c2ccc(O)cc2)c1	38 µg/mL (≈ 111 µM)
